From the SangsterLogP compilation

Test: method code SF, from DOI: 10.1021/jm00326a002, PMID: 14332653
In the case of COC(=O)CCCCC(C)=O, the logP is reported as 0.55.
Compound COC(=O)CCC(C)=O has a logP of -0.13.

Test: method code SF-GLC, from DOI: 10.1021/jm00326a002, PMID: 14332653
Compound CC(=O)CCC1CC1 has a logP of 1.5.

Test: method code SF-AS, from DOI: 10.1021/jm00326a002, PMID: 14332653
BrCCc1ccccc1 showed a logP of 3.09.
FCCCc1ccccc1 showed a logP of 2.95.
Work on CN(C)CCCc1ccccc1 yielded a logP of 2.73.
With COCCCc1ccccc1 the logP was 2.7.
In the case of C=CCCC(C)=O, the logP is reported as 1.02.
CC(=O)CCCc1ccccc1 showed a logP of 2.42.
Compound COC(=O)Cc1ccccc1 has a logP of 1.83.
Compound c1ccc2ncccc2c1 has a logP of 2.03.
For CCCCSC#N, the logP was 2.03.
With BrCCCc1ccccc1 the logP was 3.72.
In the case of CC(=O)OCCc1ccccc1, the logP is reported as 2.3.
ClCCc1ccccc1 gave a logP of 2.95.
In the case of N#CCCc1ccccc1, the logP is reported as 1.72.
For C#Cc1ccccc1, the logP was 2.53.
With NC(=O)CCc1ccccc1 the logP was 0.91.
For COC(=O)CCc1ccccc1, the logP was 2.32.
With CC(=O)Cc1ccccc1 the logP was 1.44.
Work on N#CCCCc1ccccc1 yielded a logP of 2.21.
COC(=O)CCCc1ccccc1 gave a logP of 2.77.
Work on NC(=O)CCCc1ccccc1 yielded a logP of 1.41.
